Here are results for six compounds from patent US9783852B2, “Method for assessing embryotoxicity” (priority 2008, dated 2017).

Values after ≈ are worked out from the molar mass of the structure shown. Read-outs that look alike come from different tables or passages of the source.

The subject of data set [1] is balb/c 3T3 cells cloneA31. Nature of the data set: 3T3 cell proliferation test (CellTiter-Glo). The class given is cell-based. The note with it: Mus musculus, BALB/c3T3, 144 h, read-out: 3T3 IC50 (50% inhibitory concentration for cell growth). The procedure:
In addition, using balb/c 3T3 cells cloneA31 obtained from ATCC (hereinafter, 3T3 cells), the effects of each test chemical on cell proliferation were evaluated by the following method. The 3T3 cells cultured in DMEM medium containing 10% heat inactivated fetal bovine serum, 2 mM glutamine, penicillin and streptomycin (medium for 3T3) in an incubator at 37° C. and 5% CO2 were dispersed using 0.25% trypsin/1 mM EDTA, and thereafter, the cells were suspended in the medium for 3T3. Residual trypsin was removed by centrifugation and suction of the supernatant, and the cells were suspended in the medium for 3T3. Thereafter, the number of cells was counted using a small amount of the cell solution, and a cell suspension was prepared so as to have a cell number of 10,000 cells/mL. The prepared cell suspensions were added with only solvent such as PBS(−) or DMSO as a solvent control or added with a test chemical prepared by diluting with solvent into several levels. Thereafter, each cell suspension was seeded in a white 96-well plate for cell culture in a volume of 50 μL, and the culture was performed for 3 days. On day 3, 50 μL of the medium for 3T3 supplemented with the test chemical again prepared was added, and the culture was continued for 3 days. On day 6, the supernatant of each well was removed by suction, then, each well was supplemented with the solution in a CellTiter-Glo™ Luminescent Cell Viability Assay kit (Promega) and shaken for 30 minutes, and thereafter, the activity was measured with a TopCount NXT luminescence detection counter. […] The activity values obtained from each test of the Hand1-ES cells and the 3T3 cells were averaged and tallied for the solvent control group and every concentration of the test chemical, and thereafter, a relative value of each concentration was calculated using the average value of the solvent control group as 100%.

For data set [2] the following is noted: known classification of the test chemicals used; cited from earlier work.
In data set [3] the test system is Hand1-ES cells. Nature of the data set: Hand1-ES cell luciferase reporter test during myocardial differentiation. The following applies: for Hand1-ES ID50 (50% inhibitory concentration for differentiation): concentration at which 50% of the luciferase activity is inhibited, day 6, medium for myocardial differentiation. The protocol:
Hand1-ES cell line was cultured while maintaining an undifferentiated state in DMEM medium containing 15% heat inactivated fetal bovine serum supplemented with LIF containing 100 μg/mL G418. The undifferentiated Hand1-ES cells were dispersed using 0.25% trypsin/1 mM EDTA, and thereafter, the cells were suspended in DMEM medium containing 15% heat inactivated fetal bovine serum. Residual trypsin was removed by centrifugation and suction of the supernatant, and the cells were suspended in DMEM medium containing 15% heat inactivated fetal bovine serum not containing LIF (hereinafter, medium for myocardial differentiation). Thereafter, the number of cells was counted using a small amount of the cell solution, and a cell suspension (medium for myocardial differentiation) was prepared so as to have a cell number of 15,000 cells/mL. The prepared cell suspensions were added with only solvent such as PBS(−) or DMSO as a solvent control or added with a test chemical prepared by diluting with solvent into several levels, and thereafter, each cell suspension was seeded in a nonadherent U-bottom 96-well plate in a volume of 50 μL, and the culture was performed for 3 days. On day 3, 50 μL of the medium for myocardial differentiation supplemented with the test chemical again prepared was added, and the suspension culture was continued for 3 days. On day 6, 100 μL of a luciferase luminescent reagent, Steady-Glo (Promega), was added to each well and shaken for 30 minutes, and thereafter, the total amount was transferred to a 96-well white plate, and the luciferase activity was measured with a TopCount NXT luminescence detection counter (Packard Japan). The obtained activity values were averaged and tallied for the solvent control group and every concentration of the test chemical.
In general terms: A reporter such as luciferase makes a cellular process visible.

The mark [4] stands for this setting: day 6, CellTiter-Glo luminescence.

`O=c1[nH]c(=O)n([C@H]2C[C@H](O)[C@@H](CO)O2)cc1Br` [5-bromo-2′-deoxyuridine]: the IC50 in data set [1] (setting [4]) was determined as 0.8 µg/mL (≈ 2.61 µM). Further, in data set [2], the in vivo embryotoxicity entry was “positive”. Also, in data set [3], the “Embryotoxicity assessment from comparing Hand1-ES ID50 with 3T3 IC50” value (“Embryotoxicity assessment” for short) is “has embryotoxicity” and the “Hand1-ES ID50 (50% inhibitory concentration for differentiation)” value amounted to 0.12 µg/mL.
Take `O=c1[nH]cc(F)c(=O)[nH]1` [5-fluorouracil]: the IC50 in data set [1] (setting [4]) was 0.16 µg/mL (≈ 1.23 µM). Further, in data set [2], the in vivo embryotoxicity result is “positive”. Further, in data set [3], the “Embryotoxicity assessment” value is “has embryotoxicity” and the “Hand1-ES ID50 (50% inhibitory concentration for differentiation)” value amounted to 0.02 µg/mL.
Turning to `C=CC(N)=O` [acrylamide], the IC50 in data set [1] (setting [4]) worked out at 54 µg/mL (≈ 760 µM). The in vivo embryotoxicity result in data set [2] was “negative”. In data set [3] (ID50<IC50 = embryotoxic, ID50 larger than IC50 = not shown), the “Embryotoxicity assessment” value is reported as “embryotoxicity is not shown”. Also, in data set [3], the “Hand1-ES ID50 (50% inhibitory concentration for differentiation)” value is 85.3 µg/mL.
Take `O=C1O[C@H]([C@@H](O)CO)C(O)=C1O` [ascorbic acid]: in data set [1], the IC50 turned out to be 2 µg/mL (≈ 11.4 µM). Moreover, in data set [3], the “Embryotoxicity assessment” value was “embryotoxicity is not shown” and the “Hand1-ES ID50 (50% inhibitory concentration for differentiation)” value amounted to 28.3 µg/mL.
As for `C[C@@H]1C[C@H]2[C@@H]3CCC4=CC(=O)C=C[C@]4(C)[C@@]3(F)[C@@H](O)C[C@]2(C)[C@@]1(O)C(=O)CO` [dexamethasone], the IC50 in data set [1] (setting [4]) was 36.7 µg/mL (≈ 93.5 µM). Further, in data set [2], the in vivo embryotoxicity entry was “positive”. Further, in data set [3], the “Embryotoxicity assessment” value is recorded as “has embryotoxicity” and the “Hand1-ES ID50 (50% inhibitory concentration for differentiation)” value was determined as 15.6 µg/mL.
For the compound `NC(=O)NO` [hydroxyurea], in data set [1] (setting [4]), the IC50 was found to be 4.7 µg/mL (≈ 61.8 µM). Also, in data set [3], the “Embryotoxicity assessment” value was “has embryotoxicity” and the “Hand1-ES ID50 (50% inhibitory concentration for differentiation)” value turned out to be 2.5 µg/mL.
